For assay [1], the target named is T1, Amine oxidase [flavin-containing] A (Homo sapiens, UniProt P21397).
T1 sequence (P21397 whole entry): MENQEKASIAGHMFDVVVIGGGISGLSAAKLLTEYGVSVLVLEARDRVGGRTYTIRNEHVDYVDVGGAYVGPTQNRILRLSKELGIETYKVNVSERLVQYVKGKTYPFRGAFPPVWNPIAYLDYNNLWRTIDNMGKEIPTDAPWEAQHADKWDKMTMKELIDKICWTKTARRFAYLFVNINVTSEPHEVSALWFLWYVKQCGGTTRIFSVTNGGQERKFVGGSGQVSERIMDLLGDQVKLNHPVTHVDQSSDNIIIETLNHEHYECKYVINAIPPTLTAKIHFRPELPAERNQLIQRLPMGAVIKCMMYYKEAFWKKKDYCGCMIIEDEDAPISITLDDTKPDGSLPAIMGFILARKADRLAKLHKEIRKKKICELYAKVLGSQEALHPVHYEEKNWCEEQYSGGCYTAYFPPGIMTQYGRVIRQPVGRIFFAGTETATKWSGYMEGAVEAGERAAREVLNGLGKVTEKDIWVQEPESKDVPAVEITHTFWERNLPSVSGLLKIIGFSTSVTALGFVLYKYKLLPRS
Nature of the assay: Inhibition of recombinant human MAO-A using tyramine hydrochloride as substrate preincubated for 5 mins followed by substrate addition and measured after 5 mins in presence of horse radish peroxidase by Ampliflu Red based fluorescence microplate reader.

Assay [2] deals with T2, Amine oxidase [flavin-containing] B (Homo sapiens, UniProt P27338).
T2 sequence (P27338 whole entry): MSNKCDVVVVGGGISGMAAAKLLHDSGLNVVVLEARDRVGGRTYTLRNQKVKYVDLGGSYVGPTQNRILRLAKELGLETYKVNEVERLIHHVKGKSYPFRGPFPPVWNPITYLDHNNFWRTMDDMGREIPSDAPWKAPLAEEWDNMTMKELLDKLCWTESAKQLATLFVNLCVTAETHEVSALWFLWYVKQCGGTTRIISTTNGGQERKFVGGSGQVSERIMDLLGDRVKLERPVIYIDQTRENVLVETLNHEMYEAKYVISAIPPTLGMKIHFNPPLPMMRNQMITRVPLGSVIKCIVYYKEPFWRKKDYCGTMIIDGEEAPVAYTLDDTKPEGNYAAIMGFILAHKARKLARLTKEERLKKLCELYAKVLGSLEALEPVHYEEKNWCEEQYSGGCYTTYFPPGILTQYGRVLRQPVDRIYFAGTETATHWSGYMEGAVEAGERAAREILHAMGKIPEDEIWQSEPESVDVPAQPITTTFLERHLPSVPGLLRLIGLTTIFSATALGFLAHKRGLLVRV
Nature of the assay: Inhibition of recombinant human MAO-B using tyramine hydrochloride as substrate preincubated for 5 mins followed by substrate addition and measured after 5 mins in presence of horse radish peroxidase by Ampliflu Red based fluorescence microplate reader.

A further assay is filed under the species Homo sapiens. Nature of the assay: Selectivity index, ratio of IC50 for inhibition of recombinant human MAO-A to IC50 for inhibition of recombinant human MAO-B.

One may read the IC50 as the concentration needed to halve the response being measured.

In the case of `O=C(/C=C/c1ccc2ccccc2c1)c1ccc([N+](=O)[O-])cc1`, the results for the IC50 in assay [1] and in assay [2] were 13 µM and 0.021 µM, respectively. Moreover, the Ratio IC50 in the assay listed under Homo sapiens came to 620.
Turning to `COc1ccc(/C=C/C(=O)c2ccc([N+](=O)[O-])cc2)cc1`, the figures for the IC50 in assay [1] and in assay [2] were 27 µM and 0.093 µM, respectively. For the same compound, the Ratio IC50 in the assay listed under Homo sapiens came out at 290.
Turning to `O=C(/C=C/c1ccc(Cl)c(Cl)c1)c1ccc([N+](=O)[O-])cc1`, the figures for the IC50 in assay [1] and in assay [2] were 59 µM and 0.0022 µM, respectively. For the same compound, the Ratio IC50 in the assay filed under Homo sapiens is 27000.
Regarding `Cc1ccc(/C=C/C(=O)c2ccc([N+](=O)[O-])cc2)cc1`, the IC50 is 2.7 µM in assay [1] and 0.013 µM in assay [2]. Moreover, the Ratio IC50 in the assay filed under Homo sapiens was found to be 210.
Turning to `Cc1ccccc1/C=C/C(=O)c1ccc([N+](=O)[O-])cc1`, the IC50 in assay [1] is 89 µM; in assay [2], 0.12 µM. For the same compound, the Ratio IC50 in the assay filed under Homo sapiens came to 740.
The corresponding values for `O=C(/C=C/c1ccc(Cl)cc1)c1ccc([N+](=O)[O-])cc1` are 52 µM, 0.01 µM and 5200.
The corresponding values for `O=C(/C=C/c1ccc(F)cc1)c1ccc([N+](=O)[O-])cc1` are 7.8 µM, 0.048 µM and 160.
